pIC50, pKi: −log10 of the molar value.
Tests used:
[1] = Plasma clearance after IV administration at the dose 2/2 (IV/Po/mg/kg); format: ADME, organism-based; settings: cercopithecidae, 2 mg/kg
[2] = T max after oral administration at the dose 10/10 (IV/Po/mg/kg); format: ADME, organism-based; settings: in vivo, 10 mg/kg
Rattus norvegicus = test: Area under curve value at 0-6 hr in rat pharmacokinetic screening after 10 mg/kg peroral dose; format: ADME, organism-based; parameters: time < 6 hr, dose 10 mg/kg, route oral; settings: in vivo, po
[3] = C max after oral administration at the dose 2/2 (IV/Po/mg/kg); format: ADME, organism-based; settings: cercopithecidae, in vivo, 2 mg/kg
[4] = Half life (t 1/2) after IV administration at the dose 10/10 (IV/Po/mg/kg); format: ADME, organism-based; settings: in vivo, 10 mg/kg
[5] = T max after oral administration at the dose 2/2 (IV/Po/mg/kg); format: ADME, organism-based; settings: cercopithecidae, in vivo, 2 mg/kg
[6] = Percent of Absorption after IV administration at the dose 10/10 (IV/Po/mg/kg); format: ADME, organism-based; settings: in vivo, 10 mg/kg, read-out: Absorption
[7] = Plasma clearance after IV administration at the dose 10/10 (IV/Po/mg/kg); format: ADME, organism-based; settings: 10 mg/kg
[8] = C max after oral administration at the dose 10/10 (IV/Po/mg/kg); format: ADME, organism-based; settings: in vivo, 10 mg/kg
U-87 MG = test: Concentration required to inhibit the entry of HIV-1 reporter virus (ADA) into U-87 cells by 50%; format: functional, cell-based, U-87MG ATCC
[9] = Half life (t 1/2) after IV administration at the dose 2/2 (IV/Po/mg/kg); format: ADME, organism-based; settings: cercopithecidae, in vivo, 2 mg/kg
[10] = Percent of bioavailability after oral administration at the dose 2/2 (IV/Po/mg/kg); format: ADME, organism-based; settings: cercopithecidae, in vivo, 2 mg/kg, read-out: Bioavailabiility
[11] = Percent of Absorption after IV administration at the dose 2/2 (IV/Po/mg/kg); format: ADME, organism-based; settings: cercopithecidae, in vivo, 2 mg/kg, read-out: Absorption
[12] = Percent of bioavailability after oral administration at the dose 10/10 (IV/Po/mg/kg); format: ADME, organism-based; settings: in vivo, 10 mg/kg, read-out: Bioavailabiility
[13] = molecular target: T1, Muscarinic acetylcholine receptor M2 (Homo sapiens, UniProt P08172); test: Inhibitory activity against Muscarinic acetylcholine receptor M2
T1 sequence (P08172 whole entry): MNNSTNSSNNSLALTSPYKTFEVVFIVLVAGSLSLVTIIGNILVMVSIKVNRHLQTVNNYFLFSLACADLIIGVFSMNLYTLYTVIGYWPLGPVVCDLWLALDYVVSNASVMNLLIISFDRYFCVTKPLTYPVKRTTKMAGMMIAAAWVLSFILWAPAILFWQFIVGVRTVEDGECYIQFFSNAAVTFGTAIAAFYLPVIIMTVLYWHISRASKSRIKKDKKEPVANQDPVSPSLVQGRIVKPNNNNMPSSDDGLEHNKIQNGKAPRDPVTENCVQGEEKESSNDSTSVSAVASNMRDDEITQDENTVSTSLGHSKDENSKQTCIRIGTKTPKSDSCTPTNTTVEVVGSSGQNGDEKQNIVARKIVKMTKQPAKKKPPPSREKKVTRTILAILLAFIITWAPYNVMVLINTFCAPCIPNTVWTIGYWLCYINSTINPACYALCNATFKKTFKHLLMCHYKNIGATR

Structure (SMILES) | AUC (Rattus norvegicus) [ng·h/mL] | pIC50 (U-87 MG; Homo sapiens, U-87 MG) | other results
CCO/N=C(\c1ccc(Br)cc1)C1CCN(C2(C)CCN(C(=O)c3c(C)cc[n+]([O-])c3C)CC2)CC1 [ANCRIVIROC] | 6500 | 9.22 | clearance [1]: 4.28 mL/min/kg; Tmax [2]: 0.5 h; Cmax [3]: 760 nM; half-life [4]: 5.4 h; Tmax [5]: 2 h; Fa [6]: 57%; clearance [7]: 12.8 mL/min/kg; Cmax [8]: 2500 nM; half-life [9]: 6 h; bioavailability [10]: 52%; Fa [11]: 80%; bioavailability [12]: 63%
CO/N=C(\c1ccc(Br)cc1)C1CCN(C2(C)CCN(C(=O)c3c(N)cccc3Cl)CC2)CC1 | 620 | 9.22 | –
CCO/N=C(\c1ccc(Br)cc1)C1CCN(C2(C)CCN(C(=O)c3c(C)ccnc3C)CC2)CC1 | 2100 | 9.70 | –
CO/N=C(/c1ccc(Br)cc1)C1CCN(C2(C)CCN(C(=O)c3c(C)cccc3C)CC2)CC1 | 1200 | 8.55 | –
Cc1cccc(C)c1C(=O)N1CCC(C)(N2CCC(C(=O)c3ccc(Br)cc3)CC2)CC1 | – | 7.92 | –
CCO/N=C(/c1ccc(Br)cc1)C1CCN(C2(C)CCN(C(=O)c3c(C)cccc3C)CC2)CC1 | – | 8.04 | –
CO/N=C(\c1ccc(Br)cc1)C1CCN(C2(C)CCN(C(=O)c3c(C)cccc3O)CC2)CC1 | 3000 | 8.40 | –
CCO/N=C(\c1ccc(Br)cc1)C1CCN(C2(C)CCN(C(=O)c3c(C)ccc[n+]3[O-])CC2)CC1 | 3200 | 8.77 | –
COc1ccc(S(=O)(=O)c2ccc(CC3CCN(C4CCN(C(=O)c5ccc(F)c6ccccc56)CC4)CC3)cc2)cc1 | – | – | pKi [13]: 8.89
CCO/N=C(\c1ccc(C(F)(F)F)cc1)C1CCN(C2(C)CCN(C(=O)c3c(C)cc[n+]([O-])c3C)CC2)CC1 | 2200 | 8.89 | –
Cc1cccc(C)c1C(=O)N1CCC(C)(N2CCC(Cc3ccc(C(F)(F)F)cc3)CC2)CC1 | – | 9.00 | –
Cc1cccc(C)c1C(=O)N1CCC(C)(N2CCC(/C(=N/OC(C)(C)C)c3ccc(Br)cc3)CC2)CC1 | – | 8.24 | –
CCO/N=C(\c1ccc(OC(F)(F)F)cc1)C1CCN(C2(C)CCN(C(=O)c3c(C)cc[n+]([O-])c3C)CC2)CC1 | 3000 | 8.74 | –
Cc1cccc(C)c1C(=O)N1CCC(C)(N2CCC(/C(=N/OC(C)C)c3ccc(Br)cc3)CC2)CC1 | 1700 | 8.77 | –
Cc1cccc(C)c1C(=O)N1CCC(C)(N2CCC(Cc3ccccc3Br)CC2)CC1 | – | 5.89 | –
CCO/N=C(\c1ccc(Br)cc1)C1CCN(C2(C)CCN(C(=O)c3c(C)cc(O)nc3C)CC2)CC1 | 210 | 9.05 | –
CCO/N=C(\c1ccc(Cl)cc1)C1CCN(C2(C)CCN(C(=O)c3c(C)cc[n+]([O-])c3C)CC2)CC1 | 1700 | 8.85 | –
CO/N=C(\c1ccc(C(F)(F)F)cc1)C1CCN(C2(C)CCN(C(=O)c3c(C)cc[n+]([O-])c3C)CC2)CC1 | 350 | 8.96 | –
CO/N=C(\c1ccc(Br)cc1)C1CCN(C2(C)CCN(C(=O)c3c(C)cccc3N)CC2)CC1 | 1300 | 9.30 | –
Cc1cccc(C)c1C(=O)N1CCC(C)(N2CCC(Cc3ccc(Cl)cc3)CC2)CC1 | – | 7.64 | –
CO/N=C(\c1ccc(Br)cc1)C1CCN(C2(C)CCN(C(=O)c3c(C)ccnc3C)CC2)CC1 | 1900 | 9.30 | –

Structure (SMILES) | AUC (Rattus norvegicus) [ng·h/mL] | pIC50 (U-87 MG; Homo sapiens, U-87 MG) | other results
CCO/N=C(\c1ccc(Br)cc1)C1CCN(C2(C)CCN(C(=O)c3cccnc3C)CC2)CC1 | – | 8.85 | –
CO/N=C(\c1ccc(Br)cc1)C1CCN(C2(C)CCN(C(=O)c3c(C)cccc3C)CC2)CC1 (stereo in doubt; 14c (Z)) | 1400 | 8.92 | –
Cc1ccc(CC2CCN(C3(C)CCN(C(=O)c4c(C)cccc4C)CC3)CC2)cc1 | – | 7.42 | –
Cc1cccc(C)c1C(=O)N1CCC(C)(N2CCC(C(O)c3ccc(Br)cc3)CC2)CC1 (stereo unspecified) | – | 7.12 | –
COc1ccc(CC2CCN(C3(C)CCN(C(=O)c4c(C)cccc4C)CC3)CC2)cc1 | – | 7.59 | –
Cc1cccc(C)c1C(=O)N1CCC(C)(N2CCC(Cc3ccc(OC(F)(F)F)cc3)CC2)CC1 | – | 8.30 | –
CCO/N=C(\c1ccc(Br)cc1)C1CCN(C2(C)CCN(C(=O)c3c(C)cc(C)nc3O)CC2)CC1 | – | 8.19 | –
CCO/N=C(\c1ccc(Br)cc1)C1CCN(C2(C)CCN(C(=O)c3c(F)cccc3C(F)(F)F)CC2)CC1 | 2700 | 8.68 | –
CNC(=O)CO/N=C(\c1ccc(Br)cc1)C1CCN(C2(C)CCN(C(=O)c3c(C)cccc3C)CC2)CC1 | – | 8.36 | –
Cc1cccc(C)c1C(=O)N1CCC(C)(N2CCC(/C(=N/O)c3ccc(Br)cc3)CC2)CC1 | – | 8.00 | –
CO/N=C(\c1ccc(OC(F)(F)F)cc1)C1CCN(C2(C)CCN(C(=O)c3c(C)cc[n+]([O-])c3C)CC2)CC1 | 3300 | 8.29 | –
Cc1cccc(C)c1C(=O)N1CCC(C)(N2CCC(Cc3cccc(Br)c3)CC2)CC1 | – | 7.39 | –
Cc1cccc(C)c1C(=O)N1CCC(C)(N2CCC(Cc3ccc(I)cc3)CC2)CC1 | – | 8.05 | –
CCO/N=C(\c1ccc(Br)cc1)C1CCN(C2(C)CCN(C(=O)c3c(C)cccc3C)CC2)CC1 | 1000 | 8.96 | –
Cc1cccc(C)c1C(=O)N1CCC(C)(N2CCC(Cc3ccc(Br)cc3)CC2)CC1 | 40 | 8.00 | pKi [13]: 5.88
C=C(c1ccc(Br)cc1)C1CCN(C2(C)CCN(C(=O)c3c(C)cccc3C)CC2)CC1 | 590 | 9.00 | –
CO/N=C(\c1ccc(Br)cc1)C1CCN(C2(C)CCN(C(=O)c3c(C)cccc3C)CC2)CC1 (stereo in doubt) | 2100 | – | pIC50 (U-87 MG; u-87mg atcc): 8.85
Cc1cccc(C)c1C(=O)N1CCC(C)(N2CCC(Cc3ccc(S(C)(=O)=O)cc3)CC2)CC1 | – | 8.15 | –
CCO/N=C(\c1ccc(S(C)(=O)=O)cc1)C1CCN(C2(C)CCN(C(=O)c3c(C)cc[n+]([O-])c3C)CC2)CC1 | 0 | – | –
CO/N=C(\c1ccc(Br)cc1)C1CCN(C2(C)CCN(C(=O)c3c(C)cc[n+]([O-])c3C)CC2)CC1 | 2400 | 8.25 | –
